For 4 molecules, activation and activity results are on record in PMC5342483, “Nucleoside 5′-O-monophosphorothioates as modulators of the P2Y14 receptor and mast cell degranulation” (Oncotarget, 2016).

Format in all cases: cell-based
The target in experiment [1] is T1, P2Y14 receptor (Homo sapiens, UniProt Q15391).
T1 construct: gene P2RY14
T1 sequence (Q15391 1-338): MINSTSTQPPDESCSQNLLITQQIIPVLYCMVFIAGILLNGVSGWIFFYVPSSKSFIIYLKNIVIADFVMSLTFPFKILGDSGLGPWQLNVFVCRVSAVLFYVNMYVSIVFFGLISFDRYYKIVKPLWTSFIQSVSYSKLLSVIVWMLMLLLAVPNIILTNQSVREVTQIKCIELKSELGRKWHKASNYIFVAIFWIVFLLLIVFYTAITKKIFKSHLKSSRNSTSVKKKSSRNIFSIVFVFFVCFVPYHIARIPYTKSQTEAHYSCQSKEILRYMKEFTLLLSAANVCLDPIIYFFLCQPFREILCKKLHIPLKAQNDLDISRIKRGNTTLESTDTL
Briefly: Agonist calcium mobilization assay (Fluo-8) in HEK293T Gαqi5 cells stably expressing human P2Y14R. The conditions noted are these: HEK-293T; read-out: CONCENTRATION / 100 μM.

Experiment [2] concerns the target T1, P2Y14 receptor. The experiment in a line: Antagonist calcium mobilization assay (Fluo-8) in HEK293T Gαqi5 cells stably expressing human P2Y14R; residual response to UDPG (EC80)[…] at […], […] at […]. The conditions noted are these: HEK-293T; read-out: CONCENTRATION / 1000 μM. A general note: A change in cytosolic calcium serves as a functional read-out for many receptors and channels.

The target of experiment [3] is T1, P2Y14 receptor. Briefly: Agonist calcium mobilization assay (Fluo-8) in HEK293T Gαqi5 cells stably expressing human P2Y14R. As to conditions: HEK-293T; read-out: CONCENTRATION / 1 μM.

Take `Nc1ncnc2c1ncn2[C@@H]1O[C@H](COP(O)(O)=S)[C@@H](O)[C@H]1O` [AMPS, adenosine 5'-O-monophosphorothioate]: on P2Y14 receptor [1], the activation at 100 µM came out at 84.4 ± 17.6%. The same measure, in the same setting: for `Nc1ccn([C@@H]2O[C@H](COP(O)(O)=S)[C@@H](O)[C@H]2O)c(=O)n1` [CMPS, cytidine 5'-O-monophosphorothioate] the value was 77.5 ± 4.4%. Turning to `Cc1cn([C@H]2C[C@H](O)[C@@H](COP(O)(O)=S)O2)c(=O)[nH]c1=O` [TMPS, thymidine 5'-O-monophosphorothioate], the activity at 1000 µM at P2Y14 receptor [2] stood at 17.3 ± 52.9%. Turning to `O=c1ccn([C@@H]2O[C@H](COP(O)(O)=S)[C@@H](O)[C@H]2O)c(=O)[nH]1` [UMPS, uridine 5'-O-monophosphorothioate], the activation at 1 µM on P2Y14 receptor [3] came out at 84.5 ± 5.34%.
